# In patent US20230027066A1 (Urovant Sciences GmbH, priority 2019, published 2023):
# Where “and” joins values, the source holds several entries; their conditions need not be identical. Identical values can stand only once.
# Columns and labels:
# [1] = Phase 1 ABPM study, ambulatory blood pressure and heart rate in OAB subjects, 28 days; format: in vivo, human
# Experimental: The objectives and endpoints were as described below. “Mean daytime” ABPM endpoints are calculated as the mean of all valid ABPM readings while the subject was awake during the 24-hour monitoring session. “Mean 24 hr” ABPM endpoints are calculated as the mean of all valid ABPM readings during the 24 hr monitoring session.
# For the analysis of the ABPM endpoints (CFB to Day 29 of systolic and diastolic blood pressure, and heart rate), a generalized linear model (GLM) was used. […] The analysis model for each efficacy endpoint included terms for treatment, age group (≤55 vs >55 years), sex (Male vs Female), and pre-existing hypertension (Yes vs No), and baseline score.
# Primary inferences were drawn from treatment differences for the CFB at Day 29 from the GLM. […] To test the primary hypothesis in Section 85, the upper limit of the two-sided 90% confidence interval was compared to 3.5, and the null hypothesis was rejected if the upper limit was strictly less than 3.5.
# The 24-mean ambulatory baseline for systolic and diastolic blood pressure, and heart rate was the arithmetic mean of all valid measurements between the time of cuff-fitting on Day −1 to cuff-removal on Day 1. The 24-hour mean at Day 29 was arithmetic mean of all valid measurements between the time of cuff-fitting on Day 28 to cuff removal on Day 29.
# The maximum SBP, DBP and HR in the tmax window at baseline was the maximum of the hourly means of valid measurements from 0.5 to 6.5 hours after the time of cuff fitting on Day −1. On Day 28, the maximum SBP, DBP and HR in the tmax window was the maximum of the hourly means of valid measurements from 0.5 to 6.5 hours after dose.
# The mean daytime ambulatory baseline for systolic and diastolic blood pressure, and heart rate was the arithmetic mean of all measurements taken during the time interval in which the subject was awake. The same definition was applied to Day 29 measurements.
# [2] = dose-Cmax and dose-AUC models / log-log regression from Phase 1 data
# Experimental: In order to contextualize PK parameters of a 75 mg dose, dose-Cmax and dose-AUC models were created using data from Phase 1 studies.
# [3] = vibegron 75 mg/day, 4 weeks, full analysis set
# [4] = estimated 75 mg vs 200 mg single dose
# [5] = estimated 75 mg vs 400 mg single dose
compound,measurement,setting,value
"O=C(Nc1ccc(C[C@@H]2CC[C@H]([C@H](O)c3ccccc3)N2)cc1)[C@@H]1CCc2nccc(=O)n21 [Vibegron, (6S)-N-[4-[[(2S,5R)−5-[(R)-hydroxy(phenyl)methyl]pyrrolidin−2-yl]methyl]phenyl]−4-oxo−7,8-dihydro−6H-pyrrolo[1,2-a]pyrimidine−6-carboxamide]","ABPM Mean 24 H SBP Change from Baseline to Day 28, LSMean","[1]; 75 mg, FAS",0.60 mmHg
same,"ABPM Mean 24 H SBP Change from Baseline to Day 28, Treatment Difference Vibegron-Placebo","[1]; 75 mg, FAS",0.57 mmHg
same,"ABPM Mean Daytime DBP Change from Baseline to Day 28, LSMean","[1]; 75 mg, FAS",0.50 mmHg
same,"ABPM Mean Daytime DBP Change from Baseline to Day 28, Treatment Difference Vibegron-Placebo","[1]; 75 mg, FAS",−0.04 mmHg
same,"ABPM Mean Daytime HR Change from Baseline to Day 28, LSMean","[1]; 75 mg, FAS",1.08 bpm
same,"ABPM Mean Daytime HR Change from Baseline to Day 28, Treatment Difference Vibegron-Placebo","[1]; 75 mg, FAS",0.88 bpm
same,"Mean Daytime ABPM SBP Change from Baseline to Day 28, LSMean","[1]; 75 mg, FAS",0.82 mm Hg
same,"Mean Daytime ABPM SBP Change from Baseline to Day 28, Treatment Difference Vibegron-Placebo","[1]; 75 mg, FAS",0.81 mm Hg
same,"Change from Baseline to Day 28 for Maximum (0.5 to 6.5 hrs) ABPM SBP, LSMean","[1]; 75 mg, PPS",1.0 mm Hg
same,"Change from Baseline to Day 28 for Maximum (0.5 to 6.5 hrs) ABPM SBP, Treatment Difference Vibegron-Placebo","[1]; 75 mg, PPS",1.05 mm Hg
same,"Mean Daytime ABPM SBP Change from Baseline to Day 28, LSMean","[1]; 75 mg, PPS",0.19 mm Hg
same,"Mean Daytime ABPM SBP Change from Baseline to Day 28, Treatment Difference Vibegron-Placebo","[1]; 75 mg, PPS",0.41 mm Hg
same,"ABPM DBP Day 28 change from baseline ≥10 mmHg, subjects","[1]; Maximum (0.5-6.5 h), FAS",9 (9.8) n (%)
same,"ABPM HR Day 28 change from baseline ≥10 bpm, subjects","[1]; Maximum (0.5-6.5 h), FAS",20 (21.7) n (%)
same,"ABPM SBP Day 28 change from baseline ≥15 mmHg, subjects","[1]; Maximum (0.5-6.5 h), FAS",6 (6.5) n (%)
same,"ABPM DBP Day 28 change from baseline ≥10 mmHg, subjects","[1]; Mean 24-hour, FAS",1 (1.0) n (%)
same,"ABPM HR Day 28 change from baseline ≥10 bpm, subjects","[1]; Mean 24-hour, FAS",3 (3.1) n (%)
same,"ABPM SBP Day 28 change from baseline ≥15 mmHg, subjects","[1]; Mean 24-hour, FAS",2 (2.1) n (%)
same,"ABPM DBP Day 28 change from baseline ≥10 mmHg, subjects","[1]; Mean Daytime, FAS",2 (2.1) n (%)
same,"ABPM HR Day 28 change from baseline ≥10 bpm, subjects","[1]; Mean Daytime, FAS",3 (3.1) n (%)
same,"ABPM SBP Day 28 change from baseline ≥15 mmHg, subjects","[1]; Mean Daytime, FAS",2 (2.1) n (%)
same,effects on blood pressure (overall conclusion of ABPM study),"[1]; vibegron 75 mg, 28 days",no clinically relevant effects on blood pressure
same,"mean change of daytime ambulatory systolic blood pressure from baseline, difference from placebo (primary endpoint)","[1]; vibegron 75 mg, 28 days",less than 1 mm Hg
same,mean change from baseline in daytime ambulatory systolic blood pressure,"[1]; vibegron 75 mg/day, 4-week treatment, full analysis set",0.89 mmHg
same,"mean change of 24-hour ambulatory diastolic blood pressure from baseline, lower than placebo by","[1]; vibegron 75 mg/day, 4 weeks",0.19 mmHg
same,mean change of 24-hour ambulatory heart rate from baseline,"[1]; vibegron 75 mg/day, 4 weeks",about 0.80
same,"mean change of 24-hour ambulatory heart rate from baseline, higher than placebo by","[1]; vibegron 75 mg/day, 4 weeks",0.96 bpm
same,"mean change of 24-hour ambulatory systolic blood pressure from baseline, higher than placebo by","[1]; vibegron 75 mg/day, 4 weeks",0.57 mmHg
same,"mean change of daytime ambulatory diastolic blood pressure from baseline, lower than placebo by","[1]; vibegron 75 mg/day, 4 weeks",0.04 mmHg
same,mean change of daytime ambulatory heart rate from baseline,"[1]; vibegron 75 mg/day, 4 weeks",about 1.08 bpm
same,"mean change of daytime ambulatory heart rate from baseline, higher than placebo by","[1]; vibegron 75 mg/day, 4 weeks",0.88 bpm
same,mean increase in 24-hour ambulatory diastolic blood pressure from baseline,"[1]; vibegron 75 mg/day, 4 weeks",0.51 mmHg
same,mean increase in 24-hour ambulatory systolic blood pressure from baseline,"[1]; vibegron 75 mg/day, 4 weeks",0.61 mmHg and 0.60 mmHg
same,"mean change of daytime ambulatory systolic blood pressure from baseline, higher than placebo by",[1]; [3],0.81 mmHg
same,mean daytime ambulatory systolic upper bound of the 90% confidence interval (Table 103),[1]; [3],1.11 mm Hg
same,"mean daytime ambulatory systolic blood pressure, upper bound of 90% confidence interval of difference from placebo","[1]; vibegron 75 mg/day, 4 weeks, full analysis set (Table 101)",2.49 mm Hg
same,"mean change of daytime ambulatory systolic blood pressure from baseline, higher than placebo by","[1]; vibegron 75 mg/day, 4 weeks, per protocol set",0.41 mmHg
same,"mean daytime ambulatory systolic blood pressure, upper bound of 90% confidence interval of difference from placebo","[1]; vibegron 75 mg/day, 4 weeks, per protocol set (Table 102)",2 mm Hg
same,AUC of 75 mg dose lower than 200 mg single dose,[2]; [4],~2 fold
same,Cmax of 75 mg dose lower than 200 mg single dose,[2]; [4],approximately 3.3 fold
same,AUC of 75 mg dose lower than 400 mg single dose,[2]; [5],~6 fold
same,Cmax of 75 mg dose lower than 400 mg single dose,[2]; [5],~9.2 fold
same,increase in Cmax with increase in dose from 50 to 100 mg,[2]; vibegron 50 vs 100 mg,~3 fold
same,reduction in Cmax with a 25% reduction in dose (100 mg to 75 mg),[2]; vibegron 75 vs 100 mg,~40%
